Values of other authors as cited in patent publication US7704745B2 (priority 2001, dated 2010).

System: human hepatocyte and neuroblastoma cells
Conditions: cited from earlier work

Row | Structure (SMILES) | effect on hepatocyte and neuroblastoma cell metabolism
1 | CCOP(=O)(OCC)Oc1ccc([N+](=O)[O-])cc1 [paraoxon] | opposite effects
2 | CCOP(=S)(OCC)Oc1ccc([N+](=O)[O-])cc1 [parathion] | opposite effects
